According to a melting point compilation (Tetko et al.; mined from patent text by program, amines drawn as free bases though some values may be those of a salt):

In the case of O=S(=O)(Nc1ccccc1OCc1ccc2ccccc2n1)c1cccc(C(F)(F)F)c1, the melting point is reported as 154 to 155 °C. Work on O=[N+]([O-])c1ccc(Oc2ncc(C(F)(F)F)cc2Cl)cc1 yielded a melting point of 90 to 91 °C. In the case of CCOC(=O)c1cn(C)c2nc3cc(F)c(F)cc3cc2c1=O, the melting point is reported as 323 to 324 °C. O=[N+]([O-])c1ccc(OC2CCN(c3ccncc3)CC2)cc1 showed a melting point of 142 °C. Work on O=C(C1CC1)N1CCC2(CC1)OC(c1ccccc1)C1CCCCN12 (stereo not given) yielded a melting point of 110 to 114 °C. In the case of Cc1ccc(-c2ccc3c(c2)C=C(C(=O)Nc2ccc(C(O)CN4CCCCC4)cc2)CCO3)cc1 (stereo not given), the melting point is reported as 212 to 213 °C. For COc1ccc(C2CCCCC2)cc1-c1csc(NC(=O)C2CCN(C(=O)c3cnccn3)CC2)n1, the melting point was 129 °C. CN(C)C(N)=Nc1cc(F)ccc1N1CCOCC1 showed a melting point of 137 to 138 °C. CCCN1CC(c2cccc(Cl)c2)=C(c2ccc(S(N)(=O)=O)cc2)C1=O gave a melting point of 149 to 150 °C. For COc1ccc(/C=C/C(=O)/C=C/C(=O)O)c(OC)c1, the melting point was 195 to 200 °C. Fc1cnc(Nc2cccnc2)nc1Nc1ccc2c(c1)OCCO2 showed a melting point of 251 to 253 °C. CCNC1=NN(c2cccc(C(F)(F)F)c2)CC1 showed a melting point of 172 °C. CC(=O)Nc1ccc(OCC2CCN(CC(O)COc3cccc4c3CCN4C=O)CC2)cc1 (stereo not given) gave a melting point of 177 to 179 °C. Molecule O=C(O)c1cn2c3c(c(Cl)c(F)cc3c1=O)SCC2 has a melting point of 322 to 324 °C. Work on CCCCCCCCCCCc1ccc(-c2ccc(OCC(C)CC)nn2)cc1 (stereo not given) yielded a melting point of 78 °C. In the case of OCc1cc(Cl)c(O)cc1F, the melting point is reported as 125 to 127 °C. For COC(=O)C1Cc2cc3c(cc2C(c2ccc([N+](=O)[O-])cc2)=NN1)OCO3 (stereo not given), the melting point was 161 to 164 °C. For CN1CC(CCCl)Oc2ncc(Cl)cc2C1=S (stereo not given), the melting point was 125 to 127 °C. Work on CCOC(=O)c1ccc2cc(-c3cc4ccccc4o3)ccn2c1=O yielded a melting point of 195 to 197 °C. In the case of CN(C)S(=O)(=O)c1cc(-c2csc(=Nc3ccc4c(c3)OCCO4)n2C)ccc1Cl, the melting point is reported as 200 to 203 °C. In the case of CCOC(=O)c1oc2c(C(=O)c3ccccc3)ccc(OC)c2c1C, the melting point is reported as 137 to 139 °C. In the case of N#CC[C@H](O)Cc1cc2ccccc2[nH]1, the melting point is reported as 92 to 93 °C. In the case of Nc1cc(-c2cc(Cl)cc(Cl)c2)cc2nc(-c3ccco3)nn12, the melting point is reported as 257 to 260 °C. Molecule C1=C(CCc2ccccc2)CCN(Cc2nc3ccccc3[nH]2)C1 has a melting point of 177 to 179 °C. For O=C1CCCN1c1ccnn1-c1c(Cl)cc(C(F)(F)F)cc1Cl, the melting point was 130 to 131 °C. For CC1(C)Nc2ccc(Cl)cc2N(C2CC2)C1=O, the melting point was 132 to 133 °C. For O=C(NC1CCc2ccccc2CC1=O)OCc1ccccc1 (stereo not given), the melting point was 119 to 121 °C. Molecule Cc1cc(-c2c[nH]c(N)n2)ccn1 has a melting point of 226 to 228 °C. COc1ccc(C)cc1NC(=O)Nc1ccc(N2CCNCC2)cc1 gave a melting point of 140 °C. O=C(O)c1cc(=O)c2cccc(/C=C/c3ccc(OCCCCc4ccccc4)cc3F)c2o1 gave a melting point of 73.4 to 73.5 °C. Work on COc1ccc(Nc2ccc(-c3ccnc(Nc4cc(OC)c(OC)c(OC)c4)n3)cn2)cc1 yielded a melting point of 209 to 210 °C. In the case of Cc1ccc2c(c1)C1(CNC(=O)C1)CC2=O (stereo not given), the melting point is reported as 188 to 192 °C. CC(C)(C)OC(=O)NCCNC(=O)c1ncccc1OCc1ccccc1 showed a melting point of 145 to 147 °C. With CN(SN1CCOCC1)C(=O)Oc1cccc2c1OC(C)(C)C2 the melting point was 75 to 78 °C. In the case of CCOC(=O)/C(=C/c1conc1-c1ccc(OC)cc1OCc1ccccc1C(=O)OC)Cc1cc2c(cc1OC)OCO2, the melting point is reported as 135 to 137 °C. In the case of COc1ccc2c(=O)cc(-c3n[nH]c4ccccc34)oc2c1, the melting point is reported as 218 to 220 °C. With Cc1ccc(C(O)CN2c3nc(-c4ccncc4)cc(=O)n3CCC2c2ccccc2)cc1 (stereo not given) the melting point was 198 to 200 °C. In the case of N#CC(N)=C(C#N)NCc1ccc(Cl)c(Cl)c1, the melting point is reported as 158 to 160 °C. In the case of CCC(CC)(CC(=O)Nc1ccc2ccc(OCc3ccc4ccc(F)cc4n3)cc2c1)C(=O)O, the melting point is reported as 164 to 166 °C. With O=C(Nc1cccnc1)N1CCc2cc(-c3ccccc3)ccc21 the melting point was 241 to 242 °C. Molecule CSc1nc(C)ccc1NC(=O)CCCCCSc1nc2ccccc2o1 has a melting point of 140 to 141 °C. Work on CCCCCCc1ccc(C=Cc2cc3cc4ccccc4cc3s2)cc1 yielded a melting point of 300 to 302 °C. With Cc1c(CC(C)(C)C(=O)O)n(Cc2ccc(Cl)cc2)c2ccc(Cl)cc12 the melting point was 142 °C. For CCOC(=O)C(O)=CC(=O)c1ccc(C)o1, the melting point was 88 to 92 °C. Work on Cc1nn(C(=O)NC(C)(C)CCc2ccccc2)c(=O)n1N yielded a melting point of 87 °C. For CC(C)(C)OC(=O)N1CCC2(CC1)C(=O)NCN2c1ccccc1, the melting point was 213 to 214 °C. Molecule NC(=O)c1nn(-c2ccc(S(N)(=O)=O)cc2)c2cc(-c3ccc(F)cc3)ccc12 has a melting point of 314 to 315 °C. For CCN1C(=O)C(C(=O)Nc2ccccc2S(C)=O)c2cc3c(cc21)CCO3 (stereo not given), the melting point was 137 to 138 °C. O=C(O)CCCCCNC(=O)c1cccc2c(=O)c3ccccc3[nH]c12 showed a melting point of 218 °C. O=C1Nc2cc(Cl)ccc2/C1=C\c1cccc(C(F)(F)F)c1 gave a melting point of 157 to 160 °C. With CCC(=O)Oc1cc(OC)cc(OC)c1C(=O)C=Cc1cccn1C the melting point was 108 °C. CS(=O)(=O)Nc1cccc(S(=O)(=O)N2CCC(Nc3nc(Nc4cccc(C(F)(F)F)c4)nc(OCC(F)(F)F)n3)CC2)c1 showed a melting point of 249 to 251 °C. Molecule CC=C(c1ccc(OC)cc1)c1ccc(OC)cc1 has a melting point of 99 to 100 °C. CCOC(=O)c1cc(-c2nccs2)[nH]c1C(CC1CCOCC1)c1ccc(S(=O)(=O)C2CC2)cc1 (stereo not given) showed a melting point of 178 to 179 °C. For O=S(=O)(N[C@H](CO)C1CCCCC1)c1ccc(Cl)cc1, the melting point was 115 to 118 °C. In the case of NS(=O)(=O)c1ccc(N2N=C(C(F)(F)F)CC2c2c[nH]c3ccccc23)cc1 (stereo not given), the melting point is reported as 138 to 140 °C. With COC1=CCC2=C(CCC3C2CCC2(C)C(=O)CCC32)C1 (stereo not given) the melting point was 106 to 110 °C. With COc1cc(C#N)ccc1Cc1c[nH]c2ccc([N+](=O)[O-])cc12 the melting point was 204 to 206 °C. In the case of CC(C)(C)OC(=O)C=Cc1ccc(C[C@H](NC(=O)OC(C)(C)C)C(=O)OC(c2ccccc2)c2ccccc2)cc1, the melting point is reported as 135 to 137 °C. With CC(C)(C)OC(=O)Nc1cc(OC(C)(C)C)c(-c2ccccc2F)cc1NC(=O)CC(=O)c1cccc(-n2ccnn2)c1 the melting point was 47 to 50 °C. COc1cc2c(cc1OC)C(Oc1ccc(Cl)cc1)CN(C)C2 (stereo not given) gave a melting point of 112 to 115 °C. In the case of Cn1cc(-c2cccc(F)c2)c(C(=O)NCCNC(=O)OC(C)(C)C)n1, the melting point is reported as 124 °C. Molecule CCCCNC(=O)C(=O)NCCCCCBr has a melting point of 109 to 110 °C. Molecule Cc1[nH]c(C(=O)O)c(C)c1C=O has a melting point of 233 to 237 °C. CCOC(=O)c1c(CN(CC)CC)nc2sc3c(c2c1-c1ccc(OC)c(OC)c1)CCN(C(=O)c1ccccc1)C3 gave a melting point of 86 to 87 °C. For CCN1c2ccccc2NC(=S)c2cccnc21, the melting point was 194 to 196 °C. For C=CCc1cc(-c2nc(C)no2)ccc1O, the melting point was 135 to 137 °C. O=C(O)/C(=N\OCF)c1nsc(NC(c2ccccc2)(c2ccccc2)c2ccccc2)n1 showed a melting point of 144 to 146 °C. CCCCc1ncc(/C=C(\Cc2cccs2)C(=O)O)n1Cc1ccc(C(N)=O)cc1 showed a melting point of 210 to 212 °C. Cc1cc(SC2=C(O)CC(CCc3ccc(O)cc3)(CCc3ccc(O)cc3)OC2=O)c(C(C)(C)C)cc1N showed a melting point of 140 to 145 °C. COC(=O)/C=C/C=C(\c1ccc(OC)cc1)c1ccccc1OC gave a melting point of 99.5 to 102 °C. For CCOC(=O)c1ccccc1OCC(O)COc1ccc(F)cc1 (stereo not given), the melting point was 112 to 114 °C. For CCCCS(=O)(=O)C1CC(=O)N1CC(=O)CCc1ccccc1 (stereo not given), the melting point was 93 to 94 °C. For N=C(N)Nc1nc(CO)cs1, the melting point was 163 to 165 °C. Work on CNc1cccc(-c2ccc3nnc(C)n3n2)c1 yielded a melting point of 223 to 226 °C. COC(=O)c1ccc2[nH]cc(C(=O)c3ccccc3)c2c1 gave a melting point of 271 to 273 °C. OC(C=Cc1ccco1)c1cnc2sc3c(n12)CCCCC3 (stereo not given) showed a melting point of 177 to 180 °C. For Cc1cc(Cn2nnc(C(N)=O)c2N)cc(Cl)c1C(=O)c1ccc(Cl)cc1, the melting point was 205 to 206 °C. Work on COc1cccc(CNC(=O)c2nc3ccc(F)c(OCCc4ccc(NS(N)(=O)=O)cc4)c3c(=O)[nH]2)c1 yielded a melting point of 204 to 206 °C. COc1c(N2CCC(N)C2)c(F)c(N)c2c(=O)c(C(=O)O)cn(C3CC3)c12 (stereo not given) showed a melting point of 254 to 257 °C. Fc1ccc(Cn2c(NC3CCN(CCNc4nc5cccnc5s4)CC3)nc3ccccc32)cc1 showed a melting point of 204 °C. In the case of CN(Cc1ccc(NC(=O)C2=Cc3cc(-c4ccc(OCC(=O)OC(C)(C)C)cc4)ccc3S(=O)(=O)CC2)cc1)C1CCOCC1, the melting point is reported as 209 to 211 °C. With CN1N=CC=Cc2ccccc21 the melting point was 190 to 192 °C. CC(=O)Oc1c(Oc2ccccc2)c(Oc2ccccc2)c(OC(C)=O)c2ccccc12 showed a melting point of 173 to 174 °C. Work on CC1(CBr)SC2C(NC(=O)COc3ccccc3)C(=O)N2C1C(=O)O (stereo not given) yielded a melting point of 164 to 166 °C. With CCCNC(=S)N1CCc2cc(S(=O)(=O)N3CC(c4ccccc4)NC3=O)ccc21 (stereo not given) the melting point was 222 to 224 °C. Work on Cc1oc(-c2ccccc2)nc1COc1cccc([N+](=O)[O-])c1 yielded a melting point of 106 to 107 °C. Work on C=CCOc1cc(N2C(=O)C3CCCCN3C2=O)c(F)cc1C#N (stereo not given) yielded a melting point of 132 °C. For CC(=O)N1CCC(=O)NCc2cc([N+](=O)[O-])ccc21, the melting point was 253 to 256 °C. In the case of COCCOc1cc2ncnc(NC3=CC(=O)C(Oc4ccccc4)=CC3=O)c2cc1OC, the melting point is reported as 177 to 180 °C. Molecule CC(C)(C)OC(=O)C(O)CC1CCC(=O)N1 (stereo not given) has a melting point of 110 to 112 °C. COC(=O)[C@H](CCSC)NC(=O)c1ccc(/C=C(/Cn2ccnc2)c2nccs2)cc1-c1ccccc1 gave a melting point of 122 to 124 °C. Molecule CCOC(=O)c1cccc(NC(=O)c2ccc(OC)c(NCc3cccs3)c2)c1 has a melting point of 153 to 155 °C. O=c1c2c(CCCCCCc3ccccc3)n[nH]c2c2cccnc2n1-c1ccccc1 showed a melting point of 150 to 151 °C. CCOC(=O)CC(=O)c1cc(F)c(Br)cc1F gave a melting point of 51 to 53 °C. In the case of O=c1[nH]c2ccccc2c(=O)n1CCN1CCC(C(O)c2ccc(F)cc2)CC1 (stereo not given), the melting point is reported as 213 °C. For CCCc1nc(N)c(C#N)[nH]1, the melting point was 117 to 119 °C. With CCOC(=O)c1ncn2c1[C@@H]1CCCN1C(=O)c1c(Br)cccc1-2 the melting point was 191 to 192 °C. COc1ccc(Nc2ccc(Nc3ncnc4cc(-c5cccs5)sc34)cc2)cc1 showed a melting point of 231 to 240 °C. For Nc1ccc(C=C2c3ccccc3C=Cc3ccccc32)cc1, the melting point was 119 to 120 °C.
